Legend:
Test in all cases: relative viability (nuclei count vs DMSO), 5 days (fraction); higher = more cells survive
[1] = tested on: HCC-15
In short: (§1)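 After 5 days of treatment, lung cancer cells in 1536-well plates were fixed and stained in a single step (final 0.05% Triton X-100, 1% formaldehyde, 1 ug/ml Hoechst) and their nuclei counted on 4× images. Treatment had been applied by pin tool the day after seeding as one drug alone or as a fixed anchor-drug dose with five library-drug doses (not always all listed) in √10 steps. Relative viability is the nuclei count of treated wells divided by that of vehicle wells, and values are medians of duplicate plates.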

[2] = tested on: NCI-H727
In short: as §1

[3] = tested on: NCI-H322M
In short: as §1

[4] = tested on: NCI-H838
In short: as §1

[5] = tested on: NCI-H460
In short: as §1

[6] = tested on: BEN
In short: as §1

[7] = tested on: NCI-H1651
In short: as §1

[8] = tested on: NCI-H358
In short: as §1

[9] = tested on: EMC-BAC-2
In short: as §1

[10] = tested on: LK-2
In short: as §1

[11] = tested on: NCI-H522
In short: as §1

[12] = tested on: SW 900
In short: as §1

[13] = tested on: NCI-H2023
In short: as §1

[14] = tested on: PC-3 [JPC-3]
In short: as §1

[15] = tested on: ABC-1
In short: as §1

[16] = tested on: COR-L 105
In short: as §1

[17] = tested on: EKVX
In short: as §1

[18] = tested on: LU99A
In short: as §1

[19] = tested on: HCC-44
In short: as §1

[20] = tested on: NCI-H520
In short: as §1

[21] = tested on: 201T
In short: as §1

Which results are given for Cc1csc(=NC2CCCCC2)n1/N=C/c1ccc(O)c(O)c1O [MIM1] + Nc1ncn([C@H]2C[C@H](O)[C@@H](CO)O2)c(=O)n1 [Decitabine] (partner 2 µM)?
relative viability ([1]; first compound 0.2 µM): 0.634; relative viability ([1]; first compound 0.6325 µM): 0.607; relative viability ([1]; first compound 2 µM): 0.66; relative viability ([1]; first compound 6.325 µM): 0.341; relative viability ([1]; first compound 20 µM): 0.163; relative viability ([2]; first compound 0.2 µM): 0.994; relative viability ([2]; first compound 0.6325 µM): 0.818; relative viability ([2]; first compound 2 µM): 0.841; relative viability ([2]; first compound 6.325 µM): 0.879; relative viability ([2]; first compound 20 µM): 0.574; relative viability ([3]; first compound 0.2 µM): 0.622; relative viability ([3]; first compound 0.6325 µM): 0.74; relative viability ([3]; first compound 2 µM): 0.736; relative viability ([3]; first compound 6.325 µM): 0.642; relative viability ([3]; first compound 20 µM): 0.653; relative viability ([4]; first compound 0.2 µM): 0.468; relative viability ([4]; first compound 0.6325 µM): 0.462; relative viability ([4]; first compound 2 µM): 0.513; relative viability ([4]; first compound 6.325 µM): 0.394; relative viability ([4]; first compound 20 µM): 0.221; relative viability ([5]; first compound 0.2 µM): 0.438; relative viability ([5]; first compound 0.6325 µM): 0.479; relative viability ([5]; first compound 2 µM): 0.43; relative viability ([5]; first compound 6.325 µM): 0.182; relative viability ([5]; first compound 20 µM): 0.0456; relative viability ([6]; first compound 0.2 µM): 0.811; relative viability ([6]; first compound 0.6325 µM): 0.547; relative viability ([6]; first compound 2 µM): 0.797; relative viability ([6]; first compound 6.325 µM): 0.739; relative viability ([6]; first compound 20 µM): 0.317; relative viability ([7]; first compound 0.2 µM): 0.608; relative viability ([7]; first compound 0.6325 µM): 0.524; relative viability ([7]; first compound 2 µM): 0.56; relative viability ([7]; first compound 6.325 µM): 0.509; relative viability ([7]; first compound 20 µM): 0.306; relative viability ([8]; first compound 0.2 µM): 0.212; relative viability ([8]; first compound 0.6325 µM): 0.224; relative viability ([8]; first compound 2 µM): 0.216; relative viability ([8]; first compound 6.325 µM): 0.148; relative viability ([8]; first compound 20 µM): 0.119; relative viability ([9]; first compound 0.2 µM): 0.97; relative viability ([9]; first compound 0.6325 µM): 0.897; relative viability ([9]; first compound 2 µM): 0.8; relative viability ([9]; first compound 6.325 µM): 0.852; relative viability ([9]; first compound 20 µM): 0.368; relative viability ([10]; first compound 0.2 µM): 0.343; relative viability ([10]; first compound 0.6325 µM): 0.288; relative viability ([10]; first compound 2 µM): 0.246; relative viability ([10]; first compound 6.325 µM): 0.346; relative viability ([10]; first compound 20 µM): 0.163; relative viability ([11]; first compound 0.2 µM): 0.625; relative viability ([11]; first compound 0.6325 µM): 0.632; relative viability ([11]; first compound 2 µM): 0.711; relative viability ([11]; first compound 6.325 µM): 0.691; relative viability ([11]; first compound 20 µM): 0.63; relative viability ([12]; first compound 0.2 µM): 0.345; relative viability ([12]; first compound 0.6325 µM): 0.482; relative viability ([12]; first compound 2 µM): 0.486; relative viability ([12]; first compound 6.325 µM): 0.31; relative viability ([12]; first compound 20 µM): 0.206; relative viability ([13]; first compound 0.2 µM): 0.24; relative viability ([13]; first compound 0.6325 µM): 0.215; relative viability ([13]; first compound 2 µM): 0.212; relative viability ([13]; first compound 6.325 µM): 0.157; relative viability ([13]; first compound 20 µM): 0.0821; relative viability ([14]; first compound 0.2 µM): 0.816; relative viability ([14]; first compound 0.6325 µM): 0.894; relative viability ([14]; first compound 2 µM): 0.752; relative viability ([14]; first compound 6.325 µM): 0.774; relative viability ([14]; first compound 20 µM): 0.609; relative viability ([15]; first compound 0.2 µM): 0.974; relative viability ([15]; first compound 0.6325 µM): 1.28; relative viability ([15]; first compound 2 µM): 1.14; relative viability ([15]; first compound 6.325 µM): 0.944; relative viability ([15]; first compound 20 µM): 0.427; relative viability ([16]; first compound 0.2 µM): 0.592; relative viability ([16]; first compound 0.6325 µM): 0.661; relative viability ([16]; first compound 2 µM): 0.72; relative viability ([16]; first compound 6.325 µM): 0.571; relative viability ([16]; first compound 20 µM): 0.571; relative viability ([17]; first compound 0.2 µM): 0.405; relative viability ([17]; first compound 0.6325 µM): 0.342; relative viability ([17]; first compound 2 µM): 0.331; relative viability ([17]; first compound 6.325 µM): 0.321; relative viability ([17]; first compound 20 µM): 0.341; relative viability ([18]; first compound 0.2 µM): 0.87; relative viability ([18]; first compound 0.6325 µM): 0.845; relative viability ([18]; first compound 2 µM): 0.927; relative viability ([18]; first compound 6.325 µM): 0.889; relative viability ([18]; first compound 20 µM): 0.393; relative viability ([19]; first compound 0.2 µM): 0.905; relative viability ([19]; first compound 0.6325 µM): 0.85; relative viability ([19]; first compound 2 µM): 0.866; relative viability ([19]; first compound 6.325 µM): 0.479; relative viability ([19]; first compound 20 µM): 0.405; relative viability ([20]; first compound 0.2 µM): 0.574; relative viability ([20]; first compound 0.6325 µM): 0.485; relative viability ([20]; first compound 2 µM): 0.526; relative viability ([20]; first compound 6.325 µM): 0.43; relative viability ([20]; first compound 20 µM): 0.284; relative viability ([21]; first compound 0.2 µM): 0.849; relative viability ([21]; first compound 0.6325 µM): 0.887; relative viability ([21]; first compound 2 µM): 0.812; relative viability ([21]; first compound 6.325 µM): 0.831; relative viability ([21]; first compound 20 µM): 0.533

— the supplement of paper PMC10307832
